The record followed here is ChEMBL document CHEMBL4190165 (Medchemcomm, 2016).

The Kd is the equilibrium constant for the complex coming apart. A high value points to lower affinity. The IC50 is the concentration that gives 50% inhibition.

Assay [1] can be described thus: Binding affinity to yeast Hsp90 by isothermal titration calorimetric method. Details: species or system Saccharomyces cerevisiae. (ITC needs no label: the signal is the heat of the interaction.)
The nature of assay [2]: Inhibition of Saccharomyces cerevisiae PP30 HSP82 expressed in Escherichia coli BL21(DE3)pLysS by PK/LDH coupled spectrophotometric assay.

`COC1=C2C[C@@H](C)C[C@H](OC)[C@H](O)[C@@H](C)/C=C(\C)[C@H](OC(N)=O)[C@@H](OC)/C=C\C=C(/C)C(=O)NC(=CC1=O)C2=O` [GELDANAMYCIN] returned a Kd in assay [1] of 1.2 µM. Besides, the IC50 in assay [2] fell in the range of 1 to 5 µM.

`C[C@@H]1C[C@H]2O[C@@H]2/C=C\C=C\C(=O)Cc2c(Cl)c(O)cc(O)c2C(=O)O1` [RADICICOL] gave a dissociation constant Kd in assay [1] of 0.019 µM. Besides, the IC50 in assay [2] was 0.02 to 0.023 µM.
